Test system: Clostridium difficile
Assay: Agar dilution MIC of vancomycin preparations (Sigma, Cutis), diluent, Na benzoate and Na citrate
Format: cell-based
Details: for MIC, AV (average): average of triplicate; for MIC, VAN-1: replicate 1; for MIC, VAN-2: replicate 2; for MIC, VAN-3: replicate 3
Method: Introduction: The purpose of the study was to compare the MICs obtained with the formulation of vancomycin HCL of the invention (Cutis) to formulations obtained using a vancomycin HCL reference standard powder obtained from Sigma. The Example also involves the analysis of a solution or diluent to determine if it has antimicrobial activity at the concentrations present in the agar dilution test.
The C. difficile were tested by agar dilution according to the procedures in the Clinical and Laboratory Standards Institute. 2012. Methods for antimicrobial susceptibility testing of anaerobic bacteria; approved standard-seventh edition.
Other anaerobic organisms included clinical isolates of Bifidobacterium adolescentis and Bacteroides fragilis. Clostridium difficile ATCC 700057 was included as a quality control strain.
The C. difficile isolates were recovered from patients with CDI during the past two years and stored at −70° C. in 20% skim milk. Ribotyping was performed by another reference laboratory. The strains were taken from the freezer and subcultured at least twice to ensure purity and good growth.
On the day of testing, they were suspended in Brucella broth to the turbidity of the 0.5 McFarland standard for testing.
Stock solution of the Sigma vancomycin was prepared in water and stored at −70° C. On the day of testing, it was thawed and further diluted in water to obtain the desired range of 16-0.125 μg/ml. The Cutis vancomycin (25 mg/ml) was reconstituted on the day of testing and further diluted for a final range of 16-0.125 μg/ml in the test. The antimicrobials were added to molten Brucella agar supplemented with vitamin K and hemin to prepare the plates. Drug-free growth controls were included for testing before and after each set of plates. All testing was done in triplicate.
The organisms were pipetted into the wells of the Steers replicator head and applied to the plates with the multi-pronged replicator. The final concentration of organisms was ˜10^5 CFU/spot.
The plates were incubated in the anaerobic chamber incubator for 44 h and examined for growth.
The Cutis diluent comprises: water, about 0.12% (w/v) citric acid (anhydrous), 0.2% (w/v) sucralose, about 0.05% (w/v) artificial grape flavor, 0.1% (w/v) sodium benzoate, about 0.0002% (w/v) D&C Yellow No. 10 and about 0.000038% (w/v) FD&C Red No. 40.

Structure (SMILES): CN[C@H](CC(C)C)C(=O)N[C@H]1C(=O)N[C@@H](CC(N)=O)C(=O)N[C@H]2C(=O)N[C@H]3C(=O)N[C@H](C(=O)N[C@H](C(=O)O)c4cc(O)cc(O)c4-c4cc3ccc4O)[C@H](O)c3ccc(c(Cl)c3)Oc3cc2cc(c3O[C@@H]2O[C@H](CO)[C@@H](O)[C@H](O)[C@H]2O[C@H]2C[C@](C)(N)[C@H](O)[C@H](C)O2)Oc2ccc(cc2Cl)[C@H]1O.Cl [Sigma]
- MIC, AV (average) (RMA 24690, ribotype 027): 5.3 mg/L
- MIC, VAN-1 (RMA 24690, ribotype 027): 4 mg/L
- MIC, VAN-2 (RMA 24690, ribotype 027): 4 mg/L
- MIC, VAN-3 (RMA 24690, ribotype 027): 8 mg/L
- MIC, AV (average) (RMA 26381, ribotype 017): 1.7 mg/L
- MIC, VAN-1 (RMA 26381, ribotype 017): 2 mg/L
- MIC, VAN-2 (RMA 26381, ribotype 017): 2 mg/L
- MIC, VAN-3 (RMA 26381, ribotype 017): 1 mg/L
- MIC, AV (average) (RMA 26442, ribotype 017): 1 mg/L
- MIC, VAN-1 (RMA 26442, ribotype 017): 1 mg/L
- MIC, VAN-2 (RMA 26442, ribotype 017): 1 mg/L
- MIC, VAN-3 (RMA 26442, ribotype 017): 1 mg/L
- MIC, AV (average) (RMA 26443, ribotype 027): 4 mg/L
- MIC, VAN-1 (RMA 26443, ribotype 027): 4 mg/L
- MIC, VAN-2 (RMA 26443, ribotype 027): 4 mg/L
- MIC, VAN-3 (RMA 26443, ribotype 027): 4 mg/L
- MIC, AV (average) (RMA 26445, ribotype 017): 2 mg/L
- MIC, VAN-1 (RMA 26445, ribotype 017): 2 mg/L
- MIC, VAN-2 (RMA 26445, ribotype 017): 2 mg/L
- MIC, VAN-3 (RMA 26445, ribotype 017): 2 mg/L
- MIC, AV (average) (RMA 26446, ribotype 027): 1 mg/L
- MIC, VAN-1 (RMA 26446, ribotype 027): 1 mg/L
- MIC, VAN-2 (RMA 26446, ribotype 027): 1 mg/L
- MIC, VAN-3 (RMA 26446, ribotype 027): 1 mg/L
- MIC, AV (average) (RMA 26447, ribotype 001): 2 mg/L
- MIC, VAN-1 (RMA 26447, ribotype 001): 2 mg/L
- MIC, VAN-2 (RMA 26447, ribotype 001): 2 mg/L
- MIC, VAN-3 (RMA 26447, ribotype 001): 2 mg/L
- MIC, AV (average) (RMA 26451, ribotype 001): 1.7 mg/L
- MIC, VAN-1 (RMA 26451, ribotype 001): 2 mg/L
- MIC, VAN-2 (RMA 26451, ribotype 001): 2 mg/L
- MIC, VAN-3 (RMA 26451, ribotype 001): 1 mg/L
- MIC, AV (average) (RMA 26455, ribotype 027): 1 mg/L
- MIC, VAN-1 (RMA 26455, ribotype 027): 1 mg/L
- MIC, VAN-2 (RMA 26455, ribotype 027): 1 mg/L
- MIC, VAN-3 (RMA 26455, ribotype 027): 1 mg/L
- MIC, AV (average) (RMA 26457, ribotype 027): 1 mg/L
- MIC, VAN-1 (RMA 26457, ribotype 027): 1 mg/L
- MIC, VAN-2 (RMA 26457, ribotype 027): 1 mg/L
- MIC, VAN-3 (RMA 26457, ribotype 027): 1 mg/L
- MIC, AV (average) (RMA 26461, ribotype 106): 1.3 mg/L
- MIC, VAN-1 (RMA 26461, ribotype 106): 1 mg/L
- MIC, VAN-2 (RMA 26461, ribotype 106): 2 mg/L
- MIC, VAN-3 (RMA 26461, ribotype 106): 1 mg/L
- MIC, AV (average) (RMA 26463, ribotype 002): 1.3 mg/L
- MIC, VAN-1 (RMA 26463, ribotype 002): 1 mg/L
- MIC, VAN-2 (RMA 26463, ribotype 002): 2 mg/L
- MIC, VAN-3 (RMA 26463, ribotype 002): 1 mg/L
- MIC, AV (average) (RMA 26466, ribotype 020): 1.7 mg/L
- MIC, VAN-1 (RMA 26466, ribotype 020): 2 mg/L
- MIC, VAN-2 (RMA 26466, ribotype 020): 2 mg/L
- MIC, VAN-3 (RMA 26466, ribotype 020): 1 mg/L
- MIC, AV (average) (RMA 26467, ribotype 002): 1.3 mg/L
- MIC, VAN-1 (RMA 26467, ribotype 002): 1 mg/L
- MIC, VAN-2 (RMA 26467, ribotype 002): 2 mg/L
- MIC, VAN-3 (RMA 26467, ribotype 002): 1 mg/L
- MIC, AV (average) (RMA 26471, ribotype 001): 2 mg/L
- MIC, VAN-1 (RMA 26471, ribotype 001): 2 mg/L
- MIC, VAN-2 (RMA 26471, ribotype 001): 2 mg/L
- MIC, VAN-3 (RMA 26471, ribotype 001): 2 mg/L
- MIC, AV (average) (RMA 26472, ribotype 014): 1 mg/L
- MIC, VAN-1 (RMA 26472, ribotype 014): 1 mg/L
- MIC, VAN-2 (RMA 26472, ribotype 014): 1 mg/L
- MIC, VAN-3 (RMA 26472, ribotype 014): 1 mg/L
- MIC, AV (average) (RMA 26480, ribotype 106): 1 mg/L
- MIC, VAN-1 (RMA 26480, ribotype 106): 1 mg/L
- MIC, VAN-2 (RMA 26480, ribotype 106): 1 mg/L
- MIC, VAN-3 (RMA 26480, ribotype 106): 1 mg/L
- MIC, AV (average) (RMA 26484, ribotype 106): 1 mg/L
- MIC, VAN-1 (RMA 26484, ribotype 106): 1 mg/L
- MIC, VAN-2 (RMA 26484, ribotype 106): 1 mg/L
- MIC, VAN-3 (RMA 26484, ribotype 106): 1 mg/L
- MIC, AV (average) (RMA 26485, ribotype 078): 1.3 mg/L
- MIC, VAN-1 (RMA 26485, ribotype 078): 2 mg/L
- MIC, VAN-2 (RMA 26485, ribotype 078): 1 mg/L
- MIC, VAN-3 (RMA 26485, ribotype 078): 1 mg/L
- MIC, AV (average) (RMA 26489, ribotype 176): 1 mg/L
- MIC, VAN-1 (RMA 26489, ribotype 176): 1 mg/L
- MIC, VAN-2 (RMA 26489, ribotype 176): 1 mg/L
- MIC, VAN-3 (RMA 26489, ribotype 176): 1 mg/L
- MIC, AV (average) (RMA 26494, ribotype 126): 1.3 mg/L
- MIC, VAN-1 (RMA 26494, ribotype 126): 1 mg/L
- MIC, VAN-2 (RMA 26494, ribotype 126): 2 mg/L
- MIC, VAN-3 (RMA 26494, ribotype 126): 1 mg/L
- MIC, AV (average) (RMA 26500, ribotype 014): 1 mg/L
- MIC, VAN-1 (RMA 26500, ribotype 014): 1 mg/L
- MIC, VAN-2 (RMA 26500, ribotype 014): 1 mg/L
- MIC, VAN-3 (RMA 26500, ribotype 014): 1 mg/L
- MIC, AV (average) (RMA 26503, ribotype 014): 1 mg/L
- MIC, VAN-1 (RMA 26503, ribotype 014): 1 mg/L
- MIC, VAN-2 (RMA 26503, ribotype 014): 1 mg/L
- MIC, VAN-3 (RMA 26503, ribotype 014): 1 mg/L
- MIC, AV (average) (RMA 26543, ribotype 078): 1 mg/L
- MIC, VAN-1 (RMA 26543, ribotype 078): 1 mg/L
- MIC, VAN-2 (RMA 26543, ribotype 078): 1 mg/L
- MIC, VAN-3 (RMA 26543, ribotype 078): 1 mg/L
- MIC, AV (average) (RMA 26544, ribotype 078): 2 mg/L
- MIC, VAN-1 (RMA 26544, ribotype 078): 2 mg/L
- MIC, VAN-2 (RMA 26544, ribotype 078): 2 mg/L
- MIC, VAN-3 (RMA 26544, ribotype 078): 2 mg/L
- MIC, AV (average) (RMA 26563, ribotype 018): 1 mg/L
- MIC, VAN-1 (RMA 26563, ribotype 018): 1 mg/L
- MIC, VAN-2 (RMA 26563, ribotype 018): 1 mg/L
- MIC, VAN-3 (RMA 26563, ribotype 018): 1 mg/L
- MIC, AV (average) (RMA 26572, ribotype 017): 1.7 mg/L
- MIC, VAN-1 (RMA 26572, ribotype 017): 2 mg/L
- MIC, VAN-2 (RMA 26572, ribotype 017): 2 mg/L
- MIC, VAN-3 (RMA 26572, ribotype 017): 1 mg/L
